# Values quoted from earlier work as cited in patent US20190290629A1, “NIRAPARIB SUSTAINED AND CONTROLLED RELEASE PHARMACEUTICAL COMPOSITION AND USE THEREOF” (priority 2016, published 2019).
# Like-named read-outs stand apart in the source and are kept apart here.
# Assays:
# ovarian cancer = settings: orally once daily
# [1] = not given; remark: listed apart in the source
# [2] = immediate release capsule, clinical studies
structure (smiles),measurement,setting,value
"NC(=O)c1cccc2cn(-c3ccc([C@@H]4CCCNC4)cc3)nc12 [niraparib, (S)-2-(4-(piperidin-3-yl)phenyl)-2H-indazole-7-carboxamide]",median progression free survival time,"ovarian cancer; patients with ovarian cancer of BRCA gene mutation, after first chemotherapy",21 months
same,median progression free survival time,ovarian cancer; patients without BRCA gene mutations,9.3 months
same,steady-state blood concentration peak value,300 mg/time/day,about 4.4 μM
same,steady-state blood concentration trough value,300 mg/time/day,~2.0 µM
same,time at which steady-state blood concentration is reached,300 mg/time/day,12 to 14 days
same,oral bioavailability,"immediate release capsule of niraparib tosylate monohydrate, clinical studies",73%
same,blood concentration peak time,[2],3 h
same,effect of food on plasma exposure,[2],not affected by food
same,plasma half-life,[2],more than 30 hours
same,dose-limiting toxicity,[1]; clinical,thrombocytopenia and anemia
same,patients who discontinued the treatment due to toxic and side effects,[1]; clinical studies,15%
same,patients who reduced dose or stopped taking the drug due to toxic and side effects,[1]; clinical studies,69%
same,patients with 3-4 grade anemia,[1]; clinical studies,25%
same,patients with grade 3-4 platelet reduction,[1]; clinical studies,29%
same,patients with neutropenia,[1]; clinical studies,30%
